For this assay, the target named is T1, unphosphorylated VEGF-R2Δ50 (FLVK) (Homo sapiens, UniProt P35968, DEL940-989/E990V).
T1 construct: VEGF-R2Δ50 contains residues 806-939 and 990-1171; made in house; host or cells: baculovirus/insect cell system
Nature of the assay: VEGF-R2 coupled spectrophotometric assay, unphosphorylated construct (FLVK). Format: biochemical. The settings on record: for inhibition at 0.05 µM: percent inhibition at 50 nM. The text has this:
This construct determines the ability of a test compound to inhibit tyrosine kinase activity. A construct (VEGF-R2Δ50) of the cytosolic domain of human vascular endothelial growth factor receptor 2 (VEGF-R2) lacking the 50 central residues of the 68 residues of the kinase insert domain was expressed in a baculovirus/insect cell system. Of the 1356 residues of full-length VEGF-R2, VEGF-R2Δ50 contains residues 806-939 and 990-1171, and also one point mutation (E990V) within the kinase insert domain relative to wild-type VEGF-R2. Autophosphorylation of the purified construct was performed by incubation of the enzyme at a concentration of 4 μM in the presence of 3 mM ATP and 40 mM MgCl2 in 100 mM HEPES, pH 7.5, containing 5% glycerol and 5 mM DTT, at 4° C. for 2 h. […] See Parast et al., Biochemistry, 37, 16788-16801 (1998).
The production of ADP from ATP that accompanies phosphoryl transfer was coupled to oxidation of NADH using phosphoenolpyruvate (PEP) and a system having pyruvate kinase (PK) and lactic dehydrogenase (LDH). The oxidation of NADH was monitored by following the decrease of absorbance at 340 nm ([…]=6.22 cm^−1 mM^−1) using a Beckman DU 650 spectrophotometer. Assay conditions for phosphorylated VEGF-R2Δ50 (indicated as FLVK-P in the tables below) were the following: 1 mM PEP; 250 μM NADH; 50 units of LDH/mL; 20 units of PK/mL; 5 mM DTT; […]; 1 mM ATP; and 25 mM MgCl2 in 200 mM HEPES, pH 7.5. Assay conditions for unphosphorylated VEGF-R2Δ50 (indicated as FLVK in the tables) were the following: 1 mM PEP; 250 μM NADH; 50 units of LDH/mL; 20 units of PK/mL; 5 mM DTT; […]; 3 mM ATP; and 60 mM MgCl2 and 2 mM MnCl2 in 200 mM HEPES, pH 7.5. Assays were initiated with 5 to 40 nM of enzyme. Ki values were determined by measuring enzyme activity in the presence of varying concentrations of test compounds. The percent inhibition at 50 nm (% inhibition@ 50 nm) was determined by linear least-squares regression analysis of absorbance as a function of time. The binding inhibitions were fitted to equation as described by Morrison. The data were analyzed using Enzyme Kinetic and Kaleidagraph software.

pKi: −log10 of the molar value.

T1 sequence (P35968 with tags, fused parts or gaps DEL940-989/E990V limits assumed): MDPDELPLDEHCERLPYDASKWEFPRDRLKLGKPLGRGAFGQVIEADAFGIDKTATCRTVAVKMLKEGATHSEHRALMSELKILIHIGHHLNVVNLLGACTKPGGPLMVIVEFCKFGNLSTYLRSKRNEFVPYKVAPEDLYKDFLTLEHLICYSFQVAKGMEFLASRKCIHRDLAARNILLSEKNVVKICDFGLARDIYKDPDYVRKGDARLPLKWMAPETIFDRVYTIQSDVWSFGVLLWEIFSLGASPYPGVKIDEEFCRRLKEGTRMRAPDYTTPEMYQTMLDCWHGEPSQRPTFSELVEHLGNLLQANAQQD

With `CNC(=O)n1c(C)cc2cc(Oc3ccnc4cc(C(=O)N5C[C@H](OC)[C@H](OC)C5)sc34)ccc21` [Example 4r, 5-[2-(3,4-cis-Dimethoxy-pyrrolidine-1-carbonyl)-thieno[3,2-b]pyridin-7-yloxy]-2-methyl-indole-1-carboxylic acid methylamide], the pKi is 9.15 and the inhibition at 0.05 µM was found to be 96%.

`CNC(=O)n1c(C)cc2cc(Oc3ccnc4cc(C(=O)N5C[C@@H](O)[C@@H](O)C5)sc34)ccc21` [Example 4s, 5-[2-(3,4-cis-Dihydroxy-pyrrolidine-1-carbonyl)-thieno[3,2-b]pyridin-7-yloxy]-2-methyl-indole-1-carboxylic acid methylamide] had a pKi of 10.07 and an inhibition at 0.05 µM of 98%.

Molecule `CO[C@H]1CN(C(=O)c2cc3nccc(Oc4ccc5c(c4)cc(C)n5C(=O)NC4CC4)c3s2)C[C@H]1OC` [Example 4t, 5-[2-(3,4-cis-Dimethoxy-pyrrolidine-1-carbonyl)-thieno[3,2-b]pyridin-7-yloxy]-2-methyl-indole-1-carboxylic acid cyclopropylamide] showed a pKi of 9.23 and an inhibition at 0.05 µM of 98%.

On to `Cc1cc2cc(Oc3ccnc4cc(C(=O)N5C[C@@H](O)[C@@H](O)C5)sc34)ccc2n1C(=O)NC1CC1` [Example 4u, 5-[2-(3,4-cis-Dihydroxy-pyrrolidine-1-carbonyl)-thieno[3,2-b]pyridin-7-yloxy]-2-methyl-indole-1-carboxylic acid cyclopropylamide], for which the pKi is 9.70 and testing at 0.05 µM gave an inhibition of 98%.

With `C#CCNC(=O)n1c(C)cc2cc(Oc3ccnc4cc(C(=O)N5C[C@H](OC)[C@H](OC)C5)sc34)ccc21` [Example 4v, 5-[2-(3,4-cis-Dimethoxy-pyrrolidine-1-carbonyl)-thieno[3,2-b]pyridin-7-yloxy]-2-methyl-indole-1-carboxylic acid prop-2-ynylamide], the pKi was 9.38 and the inhibition at 0.05 µM stood at 99%.

For the molecule `C#CCNC(=O)n1c(C)cc2cc(Oc3ccnc4cc(C(=O)N5C[C@@H](O)[C@@H](O)C5)sc34)ccc21` [Example 4w, 5-[2-(3,4-cis-Dihydroxy-pyrrolidine-1-carbonyl)-thieno[3,2-b]pyridin-7-yloxy]-2-methyl-indole-1-carboxylic acid prop-2-ynylamide], the pKi is 9.76 and the inhibition at 0.05 µM turned out to be 99%.

Molecule `CNC(=O)c1c(C)[nH]c2ccc(Oc3ccnc4cc(C(=O)N5CCC[C@@H]5COC)sc34)cc12` [Example 4x, 5-[2-(2R-Methoxymethyl-pyrrolidine-1-carbonyl)-thieno[3,2-b]pyridin-7-yloxy]-2-methyl-1H-indole-3-carboxylic acid methylamide] had a pKi of 7.00 and an inhibition at 0.05 µM of 1%.

The molecule `Cc1cc2c(F)c(Oc3ccnc4cc(C(=O)N5CC[C@H](O)C5)sc34)ccc2n1C(=O)NC1CC1` [Example 5j, 4-Fluoro-5-[2-(3S-hydroxy-pyrrolidine-1-carbonyl)-thieno[3,2-b]pyridin-7-yloxy]-2-methyl-indole-1-carboxylic acid cyclopropylamide] had a negative logarithm of the Ki (pKi) of 9.41 and an inhibition at 0.05 µM of 100%.

`CNC(=O)n1c(C)cc2c(F)c(Oc3ccnc4cc(C(=O)N5CC[C@@H](OC)C5)sc34)ccc21` [Example 5l, 4-Fluoro-5-[2-(3R-methoxy-pyrrolidine-1-carbonyl)-thieno[3,2-b]pyridin-7-yloxy]-2-methyl-indole-1-carboxylic acid methylamide]: the pKi is 9.72 and the inhibition at 0.05 µM was 99%.

On to `CNC(=O)n1c(C)cc2c(F)c(Oc3ccnc4cc(C(=O)N5CC[C@@H](O)C5)sc34)ccc21` [Example 5m, 4-Fluoro-5-[2-(3R-hydroxy-pyrrolidine-1-carbonyl)-thieno[3,2-b]pyridin-7-yloxy]-2-methyl-indole-1-carboxylic acid methylamide], for which the pKi was 9.23 and the inhibition at 0.05 µM was found to be 98%.

In turn, `CNC(=O)n1c(C)c(Cl)c2c(F)c(Oc3ccnc4cc(C(=O)N5CC[C@H](O)C5)sc34)ccc21` [Example 6e, 3-Chloro-4-fluoro-5-[2-(3S-hydroxy-pyrrolidine-1-carbonyl)-thieno[3,2-b]pyridin-7-yloxy]-2-methyl-indole-1-carboxylic acid methylamide] gave a pKi of 9.55 and an inhibition at 0.05 µM of 99%.

In turn, `Cc1c(Cl)c2c(F)c(Oc3ccnc4cc(C(=O)N5CC[C@H](O)C5)sc34)ccc2n1C(=O)NC1CC1` [Example 6f, 3-Chloro-4-fluoro-5-[2-(3S-hydroxy-pyrrolidine-1-carbonyl)-thieno[3,2-b]pyridin-7-yloxy]-2-methyl-indole-1-carboxylic acid cyclopropyl-amide] gave a pKi of 9.81 and an inhibition at 0.05 µM of 98%.

Regarding `CNC(=O)n1c(C)c(Cl)c2c(F)c(Oc3ccnc4cc(C(=O)N5CC[C@@H](OC)C5)sc34)ccc21` [Example 6g, 3-Chloro-4-fluoro-5-[2-(3R-methoxy-pyrrolidine-1-carbonyl)-thieno[3,2-b]pyridin-7-yloxy]-2-methyl-indole-1-carboxylic acid methylamide], the pKi was 8.91 and at 0.05 µM the inhibition was 97%.

`C#CCNC(=O)n1c(C)c(Cl)c2c(F)c(Oc3ccnc4cc(C(=O)N5CC[C@@H](OC)C5)sc34)ccc21` [Example 6h, 3-Chloro-4-fluoro-5-[2-((R)-3-methoxy-pyrrolidine-1-carbonyl)-thieno[3,2-b]pyridin-7-yloxy]-2-methyl-indole-1-carboxylic acid prop-2-ynylamide] showed a pKi of 9.85 and an inhibition at 0.05 µM of 98%.

`CNC(=O)n1c(C)cc2cc(Nc3ccnc4cc(C(=O)N5CC(F)[C@H](OC)C5)sc34)ccc21` (stereo partly drawn) [Example 7a, 5-[(2-{[(4R)-3-Fluoro-4-methoxypyrrolidin-1-yl]carbonyl}thieno[3,2-b]pyridin-7-yl)amino]-N,2-dimethyl-1H-indole-1-carboxamide] gave a pKi of 9.10 and an inhibition at 0.05 µM of 93%.

In the case of `CNC(=O)n1c(C)cc2cc(Nc3ccnc4cc(C(=O)N5CCC5)sc34)ccc21` [Example 7c, 5-[2-(Azetidine-1-carbonyl)-thieno[3,2-b]pyridin-7-ylamino]-2-methyl-indole-1-carboxylic acid methylamide], the pKi was 8.72 and the inhibition at 0.05 µM came to 97%.

On to `CNC(=O)n1c(C)cc2cc(Oc3ccnc4cc(C(=O)N5C[C@H](OC)[C@@H](O)C5)sc34)ccc21` [Example 8c], for which the pKi is 9.91 and the inhibition at 0.05 µM was found to be 98%.

`CNC(=O)n1c(C)cc2cc(Oc3ccnc4cc(C(=O)N5C[C@H](O)[C@@H](O)C5)sc34)ccc21` [Example 8d] gave a pKi of 9.96 and an inhibition at 0.05 µM of 99%.

Regarding `CCCNC(=O)n1c(C)cc2cc(Oc3ccnc4cc(C(=O)N5C[C@H](OC)[C@@H](OC)C5)sc34)ccc21` [Example 8e, 5-[(2-{[(3S,4S)-3,4-dimethoxypyrrolidin-1-yl]carbonyl}thieno[3,2-b]pyridin-7-yl)oxy]-2-methyl-N-propyl-1H-indole-1-carboxamide], the negative logarithm of the Ki (pKi) was 9.94 and the inhibition at 0.05 µM came out at 98%.

By pKi is commonly meant −log10 of the Ki, conventionally taken in molar units. Low readings indicate a large Ki, high ones a small Ki. Usually inhibition stands for the relative decrease from the control value, in per cent. Read a low inhibition as little suppression.
